Reference: US8338622B2, “Heterocyclic compound” (Takeda Pharmaceutical Company Limited, priority 2008, dated 2012)

Tests used:
human RBP4 = molecular target: T1, human RBP4 (Homo sapiens, UniProt P02753); test: Binding assay by Retinol-RBP4-TTR ELISA (human type ELISA); details: retinol 0.5 μM, read-out: human RBP4 binding inhibitory activity (IC50 nM)
T1 construct: the culture supernatant containing secreted/expressed hRBP4-His was recovered; His tag (His6, read from the HISENU oligo); made in house; host or cells: FreeStyle293 expression system (Invitrogen), secreted into the culture supernatant
Method: The action of the compound of the present invention to inhibit the binding between RBP4, and retinol and TTR was evaluated using the Retinol-RBP4-TTR ELISA (human type ELISA) system shown below.
The binding assay was performed by an ELISA system (Retinol-RBP4-TTR ELISA) for detecting retinol-RBP4-TTR conjugate by streptavidin-biotin reaction.
His-tagged human RBP4 used was prepared in the above-mentioned 1C.
Biotinylated human TTR used was prepared in the above-mentioned 1E.
Streptavidin (20 μl) (10 μg/ml Streptavidin type II (Wako Pure Chemical Industries, Ltd.), 10 mM Tris-HCl (pH 7.5), 10 mM NaCl) was added to a 384 well black maxisorp plate (Nunc), and the plate was subjected to centrifugation (1000 rpm, 1 min) and coated overnight at 4° C. The plate was washed twice with PBST (PBS, 0.05% Tween 20, 100 μl/well) and blocked with 25% Block Ace (Snow Brand Milk Products Co., Ltd., PBS, 100 μl/well). The plate was subjected to centrifugation (1000 rpm, 1 min) and incubated at room temperature for 4 hr or overnight at 4° C. The plate was washed twice with PBST (PBS, 0.05% Tween 20, 100 μl/well), and biotinylated human TTR (stock solution concentration 1.3 mg/ml) diluted 1000-fold with PBST was added at 20 μl/well. The plate was subjected to centrifugation (1000 rpm, 1 min) and stood still at room temperature for 1.5 hr or overnight at 4° C. The plate was washed 3 times with PEST (100 μl/well), and His-tagged human RBP4 (stock solution concentration 0.96 mg/ml) diluted 4000-fold with a reaction buffer (50 mM Tris-HCl, 150 mM NaCl, 0.005% Tween 20, 1 mM DTT, 0.1% BSA) was added at 10 μl/well. The dilution series (8 doses from 10 mM, 200-fold concentration) of the compound was prepared with DMSO, and 1 μl of each was added to a reaction buffer (200 μl) containing retinol (0.5 μM) (Sigma-Aldrich Co.). A reaction buffer (200 μl) containing retinol and added with DMSO was used as a positive control, and reaction buffer (200 μl) free of retinol and added with DMSO was used as a negative control. Mixed solutions of retinol and the compound were added to the plate at 15 μl/well. The mixture was stirred in a platemixer, subjected to centrifugation (1000 rpm, 1 min) and reacted at room temperature for 2 hr. A 35% Block Ace solution diluted with the reaction buffer was added at 10 μl/well, centrifuged (1000 rpm, 1 min) and reacted at room temperature for 30 min. The plate was washed 3 times with PBST (100 μl/well) and SuperSignal ELISA Femto Maximum Sensitivity Substrate reagent (PIERCE) was added at 30 μl/well, and the luminescence was measured by a platereader (Wallac).
The binding activity rate of the compound was determined by 100×(test compound value−negative control value)/(positive control value−negative control value). The binding inhibitory activity (IC50) was calculated from the binding activity rate at each compound concentration using a graph drawing software, Prism (GraphPad Software Inc.).

RBP4 = molecular target: T2, RBP4 (Mus musculus, UniProt Q00724); test: Blood RBP4 lowering action in C57BL/6J mouse, single oral administration; assay type: in vivo; details: plasma, mean±SD n=5; for RBP4 (% of initial/Control) 0 hr later: 0 hr value before administration, 50 mg/kg oral; for RBP4 (% of initial/Control) 4 hr later: 4 hr after 50 mg/kg oral; for RBP4 (% of initial/Control) 7 hr later: 7 hr after 50 mg/kg oral; for RBP4 (% of initial/Control) 24 hr later: 24 hr after 50 mg/kg oral
T2 construct: from tissue; host or cells: plasma of male C57BL/6J mice (Charles River Laboratories Japan Inc.)
Method: A blood RBP4 lowering action of the compound of the present invention was evaluated using C57BL/6J mouse.
Male 7- to 15-week-old C57BL/6J mice (Charles River Laboratories Japan Inc.) were individually bred for acclimation for 4-6 days under conditions with free access to CE-2 solid food (CLEA Japan, Inc.), and grouped based on the body weight (5 per group). The next day of grouping, blood samples were collected from the orbital venous plexus, and plasma was separated (0 hr value). Thereafter, the test compounds (Examples 1, 13, 15, 16, 17, 27 and 34) were orally administered at a dose of 50 mg/kg (solvent: 0.5% methylcellulose solution (10 mL/kg)). At 4, 7 and 24 hr after administration of the compounds, blood samples were collected from the orbital venous plexus, and plasma was separated. A 0.5% methylcellulose solution (10 mL/kg) was orally administered to the control group.
The RBP4 level of the collected plasma was measured by ELISA. RBP4 was quantified by the following steps using a rabbit, anti-mouse RBP4 polyclonal antibody (Hokudo Co., Ltd). A 96 well ELISA plate was coated with 50 μg/ml of the antibody (100 μL) and stood at 4° C. overnight. After blocking with BlockAce (DAINIPPON PHARMACEUTICAL CO., LTD.), mouse RBP4 or a sample (100 μL) was added and the plate was stood at room temperature for 2 hr. After washing with PBS-0.5% Tween 20, HRP-labeled anti-RBP4 antibody (prepared by labeling RBP4 polyclonal antibody (Hokudo Co., Ltd) with HRP (DOJINDO LABORATORIES)) was added by 100 μL, and the plate was stood at room temperature for 1 hr. After washing, TMB (Dako Cytomations) was added, and the mixture was stood at room temperature for 20 min to allow color development, and the reaction was quenched with 2N sulfuric acid. Thereafter, the absorbance at A450 nm was measured on a platereader. The amount of change from the initial value of each animal was determined as a relative value from the control group (% of initial/Control) at each time point. The results are shown in the following in mean±standard deviation (n=5).

Zucker fa/fa rats = test: Hypoglycemic action in Zucker fa/fa rats (Experimental Example 4A); assay type: in vivo, rat; details: 30 mg/kg oral for 2 weeks
Method: A hypoglycemic action of the compound of the present invention was evaluated using Zucker fa/fa rats.
Male 19-week-old Zucker fa/fa rats (Takeda Pharmaceutical Company Limited) were bred in group on CE-2 solid food (CLEA Japan, Inc.) until 12-week-old, thereafter bred on high-fat diet D06110702 (LSG Corporation) for acclimation under conditions with free access to food. At 19-week-old, the rats were grouped based on the body weight, blood glucose level, glycated hemoglobin level and blood RBP4 level value (6 per group). Thereafter, the test compound (Example 34) was orally administered at a dose of 30 mg/kg (solvent: 0.5% methylcellulose solution (5 mL/kg)) for 2 weeks. After 24 hr of the final administration of the compound, blood samples were collected from the tail vein, and plasma was separated. Using the collected plasma, (1) RBP4 concentration, (2) glycated hemoglobin level and (3) blood glucose level were measured. (1) was quantified according to the protocol described in Experimental Example 3. (2) was measured using Tosoh Corporation automatic glycohemoglobin analyzer (HLC-723 GHbV A1c2.2 or HLC-723G7 GHbV A1c2.2), and (3) was measured using Hitachi full-automatic analyzer (7070 or 7080), respectively.
A 0.5% methylcellulose solution (5 mL/kg) was orally administered to the control group. […] The results are shown in the following in mean±standard deviation (n=6). In the following Table, glycated hemoglobin change is obtained by subtracting the value before administration from that after administration.

Compound | IC50 (human RBP4) [nM] | RBP4 (% of initial/Control) 0 hr later (RBP4) | RBP4 (% of initial/Control) 4 hr later (RBP4) | RBP4 (% of initial/Control) 7 hr later (RBP4) | RBP4 (% of initial/Control) 24 hr later (RBP4) | also measured
O=C(O)CCC1CCC(c2cc(C(F)(F)F)cc(C(F)(F)F)c2)O1 (racemic) [Example 34, 3-{5-[3,5-bis(trifluoromethyl)phenyl]tetrahydrofuran-2-yl}propanoic acid] | 26 | 100.0 ± 5.6 % of initial/Control | 37.4 ± 2.4 % of initial/Control | 34.8 ± 2.6 % of initial/Control | 107.4 ± 15.3 % of initial/Control | blood RBP4 concentration (in words) (Zucker fa/fa rats): significant decrease; blood glucose level (in words) (Zucker fa/fa rats): significant decrease; glycated hemoglobin change (in words) (Zucker fa/fa rats): significant decrease; blood glucose level (Zucker fa/fa rats; 24 hr after final administration, mean±SD n=6): 157.2 ± 50.6 mg/dL; glycated hemoglobin change (%) (Zucker fa/fa rats; value after minus before administration, mean±SD n=6): −1.72 ± 0.52%; RBP4 (Zucker fa/fa rats; plasma, 24 hr after final administration, mean±SD n=6): 5.2 ± 0.2 µg/mL
O=C(O)CSC1CCN(c2cc(C(F)(F)F)cc(C(F)(F)F)c2)C1 (single isomer, unassigned) [Example 10, ({1-[3,5-bis(trifluoromethyl)phenyl]pyrrolidin-3-yl}sulfanyl)acetic acid] | 27 |  |  |  |  | 
O=C(O)CSC1CCN(c2cc(C(F)(F)F)cc(C(F)(F)F)c2)C1 (single isomer, unassigned) [Example 11, ({1-[3,5-bis(trifluoromethyl)phenyl]pyrrolidin-3-yl}sulfanyl)acetic acid] | 13 |  |  |  |  | 
O=C(O)CSC1CCN(c2cc(C(F)(F)F)cc(C(F)(F)F)c2)C1 (stereo not shown) [Example 1, ({1-[3,5-bis(trifluoromethyl)phenyl]pyrrolidin-3-yl}sulfanyl)acetic acid] | 45 | 100 ± 20.2 % of initial/Control | 42.5 ± 3.3 % of initial/Control | 36.0 ± 3.2 % of initial/Control | 73.8 ± 19.3 % of initial/Control | 
O=C(O)C[S+]([O-])C1CCN(c2cc(C(F)(F)F)cc(C(F)(F)F)c2)C1 (stereo not shown) [Example 2, ({1-[3,5-bis(trifluoromethyl)phenyl]pyrrolidin-3-yl}sulfinyl)acetic acid] | 38 |  |  |  |  | 
O=C(O)CCC1CCN(c2ccc(Cl)c(C(F)(F)F)c2)C1 (stereo not shown) [Example 13, 3-{1-[4-chloro-3-(trifluoromethyl)phenyl]pyrrolidin-3-yl}propanoic acid] | 26 | 100.0 ± 10.9 % of initial/Control | 54.5 ± 1.2 % of initial/Control | 56.5 ± 2.5 % of initial/Control | 106.6 ± 3.9 % of initial/Control | 
O=C(O)CCC1CCN(c2cccc(C(F)(F)F)c2Cl)C1 (stereo not shown) [Example 14, 3-{1-[2-chloro-3-(trifluoromethyl)phenyl]pyrrolidin-3-yl}propanoic acid] | 39 |  |  |  |  | 
O=C(O)CCN1CCN(c2cc(C(F)(F)F)cc(C(F)(F)F)c2)C1=O [Example 15, 3-{3-[3,5-bis(trifluoromethyl)phenyl]-2-oxoimidazolidin-1-yl}propanoic acid] | 320 | 100.0 ± 4.4 % of initial/Control | 51.0 ± 1.4 % of initial/Control | 49.0 ± 1.1 % of initial/Control | 58.2 ± 2.7 % of initial/Control | 
O=C(O)COC1CCN(c2ccc(Cl)c(C(F)(F)F)c2)C1 (stereo not shown) [Example 27, calcium ({1-[4-chloro-3-(trifluoromethyl)phenyl]pyrrolidin-3-yl}oxy)acetate] | 140 | 100.0 ± 2.1 % of initial/Control | 56.2 ± 1.7 % of initial/Control | 56.0 ± 1.6 % of initial/Control | 59.6 ± 2.1 % of initial/Control | 
O=C(O)CN1CC(c2cc(C(F)(F)F)cc(C(F)(F)F)c2)CC1=O (stereo not shown) [Example 48, {4-[3,5-bis(trifluoromethyl)phenyl]-2-oxopyrrolidin-1-yl}acetic acid] | 210 |  |  |  |  | 
O=C(O)CCSC1CCN(c2cc(C(F)(F)F)cc(C(F)(F)F)c2)C1 (stereo not shown) [Example 50, 3-({1-[3,5-bis(trifluoromethyl)phenyl]pyrrolidin-3-yl}sulfanyl)propanoic acid] | 81 |  |  |  |  | 
